From patent publication US6977262B2, “Dihydropyrazolopyridine compounds and pharmaceutical use thereof” (Mitsubishi Pharma Corporation, priority 2001, dated 2005)

melting point	SMILES
209 °C	CCCC1=C(C(=O)OCC)C(c2nccn2C)c2c[nH]nc2N1 (centres unmarked) [Example 237, Ethyl 4,7-dihydro-4-(1-methyl-1H-imidazol-2-yl)-6-propyl-2H-pyrazolo[3,4-b]pyridine-5-carboxylate]
200 °C	CCCC1=C(C(=O)OCC)C(c2cnc[nH]2)c2c[nH]nc2N1 (centres unmarked) [Example 238, Ethyl 4,7-dihydro-4-(1H-imidazol-5-yl)-6-propyl-2H-pyrazolo[3,4-b]pyridine-5-carboxylate]
213 °C	CCCCC1=C(C(=O)OCC)C(c2cccc3nonc23)c2c[nH]nc2N1 (centres unmarked) [Example 239, Ethyl 4-(2,1,3-benzoxadiazol-4-yl)-6-butyl-4,7-dihydro-2H-pyrazolo[3,4-b]pyridine-5-carboxylate]
174 °C	N#CC1=C(c2cccs2)Nc2n[nH]cc2C1c1ccccc1Cl (centres unmarked) [Example 241, 4-(2-Chlorophenyl)-5-cyano-4,7-dihydro-6-(thiophen-2-yl)-2H-pyrazolo[3,4-b]pyridine]
215 °C	COc1ccccc1C1C(C#N)=C(c2cccs2)Nc2n[nH]cc21 (centres unmarked) [Example 242, 5-Cyano-4,7-dihydro-4-(2-methoxyphenyl)-6-(thiophen-2-yl)-2H-pyrazolo[3,4-b]pyridine]
222 °C	CSc1ccccc1C1C(C#N)=C(c2cccs2)Nc2n[nH]cc21 (centres unmarked) [Example 243, 5-Cyano-4,7-dihydro-4-(2-methylthiophenyl)-6-(thiophen-2-yl)-2H-pyrazolo[3,4-b]pyridine]
165 °C	N#CC1=C(c2cccs2)Nc2n[nH]cc2C1c1ccccc1[N+](=O)[O-] (centres unmarked) [Example 244, 5-Cyano-4,7-dihydro-4-(2-nitrophenyl)-6-(thiophen-2-yl)-2H-pyrazolo[3,4-b]pyridine]
254 °C	N#CC1=C(c2cccs2)Nc2n[nH]cc2C1c1cccc2nsnc12 (centres unmarked) [Example 245, 4-(2,1,3-Benzothiadiazol-4-yl)-5-cyano-4,7-dihydro-6-(thiophen-2-yl)-2H-pyrazolo[3,4-b]pyridine]
214 °C	N#CC1=C(c2cccs2)Nc2n[nH]cc2C1c1cccc2ccccc12 (centres unmarked) [Example 246, 5-Cyano-4,7-dihydro-4-(naphthalen-1-yl)-6-(thiophen-2-yl)-2H-pyrazolo[3,4-b]pyridine]
232 °C	N#CC1=C(c2cccs2)Nc2n[nH]cc2C1c1cccc(Cl)c1Cl (centres unmarked) [Example 247, 5-Cyano-4-(2,3-dichlorophenyl)-4,7-dihydro-6-(thiophen-2-yl)-2H-pyrazolo[3,4-b]pyridine]
246 °C	Cc1ccccc1C1C(C#N)=C(c2ccccc2)Nc2n[nH]cc21 (centres unmarked) [Example 248, 5-Cyano-4,7-dihydro-4-(2-methylphenyl)-6-phenyl-2H-pyrazolo[3,4-b]pyridine]
276 °C	Cc1ccccc1C1C(C#N)=C(c2cccs2)Nc2n[nH]cc21 (centres unmarked) [Example 249, 5-Cyano-4,7-dihydro-4-(2-methylphenyl)-6-(thiophen-2-yl)-2H-pyrazolo[3,4-b]pyridine]
205 to 210 °C (dec.)	N#CC1=C(CO)Nc2n[nH]cc2C1c1ccccc1Cl (centres unmarked) [Example 252, 4-(2-Chlorophenyl)-5-cyano-4,7-dihydro-6-hydroxymethyl-2H-pyrazolo[3,4-b]pyridine]
240 to 243 °C (dec.)	CCOC(=O)/C=C/C1=C(C#N)C(c2ccccc2Cl)c2c[nH]nc2N1 (stereo not drawn) [Example 253, 4-(2-Chlorophenyl)-5-cyano-4,7-dihydro-6-(trans-2-ethoxycarbonylethenyl)-2H-pyrazolo[3,4-b]pyridine]
172 to 174 °C	CCOC(=O)CCC1=C(C#N)C(c2ccccc2Cl)c2c[nH]nc2N1 (centres unmarked) [Example 254, 4-(2-Chlorophenyl)-5-cyano-6-(2-ethoxycarbonylethyl)-4,7-dihydro-2H-pyrazolo[3,4-b]pyridine]
215 to 220 °C (dec.)	N#CC1=C(CO)Nc2n[nH]cc2C1c1cccc2nonc12 (centres unmarked) [Example 257, 4-(2,1,3-Benzoxadiazol-4-yl)-5-cyano-4,7-dihydro-6-hydroxymethyl-2H-pyrazolo[3,4-b]pyridine]
> 250 °C	CC(C)C1=C(C#N)C(c2cccc(C#N)c2Br)c2c[nH]nc2N1 (centres unmarked) [Example 260, 4-(2-Bromo-3-cyanophenyl)-5-cyano-4,7-dihydro-6-isopropyl-2H-pyrazolo[3,4-b]pyridine]
224 °C	CC(C)C1=C(C#N)C(c2ccccc2[N+](=O)[O-])c2c[nH]nc2N1 (centres unmarked) [Example 262, 5-Cyano-4,7-dihydro-6-isopropyl-4-(2-nitrophenyl)-2H-pyrazolo[3,4-b]pyridine]
> 250 °C	CC(C)C1=C(C#N)C(c2cccc(Cl)c2Cl)c2c[nH]nc2N1 (centres unmarked) [Example 263, 5-Cyano-4-(2,3-dichlorophenyl)-4,7-dihydro-6-isopropyl-2H-pyrazolo[3,4-b]pyridine]
222 to 223 °C (dec.)	CC(C)C1=C(C#N)C(c2cccc3nonc23)c2c[nH]nc2N1 (centres unmarked) [Example 264, 4-(2,1,3-Benzoxadiazol-4-yl)-5-cyano-4,7-dihydro-6-isopropyl-2H-pyrazolo[3,4-b]pyridine]
> 250 °C	COc1ccccc1C1C(C#N)=C(C(C)C)Nc2n[nH]cc21 (centres unmarked) [Example 265, 5-Cyano-4,7-dihydro-6-isopropyl-4-(2-methoxyphenyl)-2H-pyrazolo[3,4-b]pyridine]
> 250 °C	N#CC1=C(C2CC2)Nc2n[nH]cc2C1c1ccccc1Cl (centres unmarked) [Example 266, 4-(2-Chlorophenyl)-5-cyano-6-cyclopropyl-4,7-dihydro-2H-pyrazolo[3,4-b]pyridine]
> 250 °C	N#CC1=C(C2CC2)Nc2n[nH]cc2C1c1ccccc1Br (centres unmarked) [Example 267, 4-(2-Bromophenyl)-5-cyano-6-cyclopropyl-4,7-dihydro-2H-pyrazolo[3,4-b]pyridine]
200 to 201 °C (dec.)	N#CC1=C(C2CC2)Nc2n[nH]cc2C1c1cccc2nonc12 (centres unmarked) [Example 269, 4-(2,1,3-Benzoxadiazol-4-yl)-5-cyano-6-cyclopropyl-4,7-dihydro-2H-pyrazolo[3,4-b]pyridine]
236 to 238 °C (dec.)	N#CC1=C(C2CC2)Nc2n[nH]cc2C1c1ccccc1[N+](=O)[O-] (centres unmarked) [Example 272, 5-Cyano-6-cyclopropyl-4,7-dihydro-4-(2-nitrophenyl)-2H-pyrazolo[3,4-b]pyridine]
> 280 °C	N#CC1=C(c2cccs2)Nc2n[nH]cc2C1c1cccc(C#N)c1Br (centres unmarked) [Example 278, 4-(2-Bromo-3-cyanophenyl)-5-cyano-4,7-dihydro-6-(thiophen-2-yl)-2H-pyrazolo[3,4-b]pyridine]
138 to 140 °C	CCCC1=C(C#N)C(c2ccccc2Cl)c2cnn(C(=O)Nc3ccccc3)c2N1 (centres unmarked) [Example 283, 4-(2-Chlorophenyl)-5-cyano-4,7-dihydro-1-phenylcarbamoyl-6-propyl-1 H-pyrazolo[3,4-b]pyridine]

SMILES	melting point
CCCC1=C(C#N)C(c2ccccc2Cl)c2cnn(C(=O)OC(C)(C)C)c2N1 (centres unmarked) [Example 281, 1-tert-Butoxycarbonyl-4-(2-chlorophenyl)-5-cyano-4,7-dihydro-6-propyl-1 H-pyrazolo[3,4-b]pyridine]	98 to 102 °C
CCCC1=C(C#N)C(c2ccccc2Cl)c2cn(C(=O)OC(C)(C)C)nc2N1 (centres unmarked) [Example 282, 2-tert-Butoxycarbonyl-4-(2-chlorophenyl)-5-cyano-4,7-dihydro-6-propyl-2H-pyrazolo[3,4-b]pyridine]	175 °C (dec.)
